Reference: PubChem BioAssay (NCI)
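96-well plates; 48 h exposure; 5 concentrations. Endpoints by linear interpolation between flanking doses. Not reached: highest tested concentration assigned. Here, GI50 denotes the concentration required for 50% inhibition of growth. At the TGI there is no net growth.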

Assays:
Assay in all cases: inhibition of tumour cell growth, NCI panel, 48 h
OVCAR-5 ovarian = test system: OVCAR-5 ovarian
HCT-116 colon = test system: HCT-116 colon
SF-268 CNS = test system: SF-268 CNS
K-562 leukemia = test system: K-562 leukemia
SNB-75 CNS = test system: SNB-75 CNS
DMS 273 small cell lung = test system: DMS 273 small cell lung
OVCAR-8 ovarian = test system: OVCAR-8 ovarian
UO-31 renal = test system: UO-31 renal
CAKI-1 renal = test system: CAKI-1 renal
NCI-H522 lung = test system: NCI-H522 lung
LOX IMVI melanoma = test system: LOX IMVI melanoma
UACC-62 melanoma = test system: UACC-62 melanoma
A549 NSCLC = test system: A549 NSCLC
OVCAR-4 ovarian = test system: OVCAR-4 ovarian
HL-60(TB) leukemia = test system: HL-60(TB) leukemia
SNB-19 CNS = test system: SNB-19 CNS
OVCAR-3 ovarian = test system: OVCAR-3 ovarian
SF-295 CNS = test system: SF-295 CNS
NCI-H23 lung = test system: NCI-H23 lung
SK-MEL-2 melanoma = test system: SK-MEL-2 melanoma
M19-MEL melanoma = test system: M19-MEL melanoma
SK-OV-3 ovarian = test system: SK-OV-3 ovarian
NCI-H460 lung = test system: NCI-H460 lung
DLD-1 colon = test system: DLD-1 colon
COLO 205 colon = test system: COLO 205 colon
TK-10 renal = test system: TK-10 renal
NCI-H226 lung = test system: NCI-H226 lung
HCT-15 colon = test system: HCT-15 colon
EKVX NSCLC = test system: EKVX NSCLC
CCRF-CEM leukemia = test system: CCRF-CEM leukemia
HOP-18 NSCLC = test system: HOP-18 NSCLC
MALME-3M melanoma = test system: MALME-3M melanoma
UACC-257 melanoma = test system: UACC-257 melanoma
M14 melanoma = test system: M14 melanoma
SF-539 CNS = test system: SF-539 CNS
HOP-62 NSCLC = test system: HOP-62 NSCLC
U251 CNS = test system: U251 CNS
LXFL 529 NSCLC = test system: LXFL 529 NSCLC
HCC-2998 colon = test system: HCC-2998 colon
SW-620 colon = test system: SW-620 colon
A498 renal = test system: A498 renal
MOLT-4 leukemia = test system: MOLT-4 leukemia
KM12 colon = test system: KM12 colon
SN12C renal = test system: SN12C renal
HT29 colon = test system: HT29 colon
IGROV1 ovarian = test system: IGROV1 ovarian
RPMI-8226 leukemia = test system: RPMI-8226 leukemia
SK-MEL-28 melanoma = test system: SK-MEL-28 melanoma
ACHN renal = test system: ACHN renal

SMILES: CC(=O)[CH-]C(=O)c1ccccc1.CC(=O)[CH-]C(=O)c1ccccc1.C[C@]12CCC(=O)C=C1CC[C@@H]1C2CC[C@@]2(C)C1CC[C@]2(C)[O-].C[C@]12CCC(=O)C=C1CC[C@@H]1C2CC[C@@]2(C)C1CC[C@]2(C)[O-].Cl.[Ti+4] (stereo partly drawn)
- GI50 (OVCAR-5 ovarian): 16.5 µM
- TGI (OVCAR-5 ovarian): > 100 µM
- GI50 (HCT-116 colon): 22.2 µM
- TGI (HCT-116 colon): > 100 µM
- GI50 (SF-268 CNS): 20.7 µM
- TGI (SF-268 CNS): 75.2 µM
- GI50 (K-562 leukemia): 3.76 µM
- TGI (K-562 leukemia): > 100 µM
- GI50 (SNB-75 CNS): 15.7 µM
- TGI (SNB-75 CNS): 43.7 µM
- GI50 (DMS 273 small cell lung): 17.4 µM
- TGI (DMS 273 small cell lung): 89.9 µM
- GI50 (OVCAR-8 ovarian): 20.4 µM
- TGI (OVCAR-8 ovarian): 77.5 µM
- GI50 (UO-31 renal): 24.2 µM
- TGI (UO-31 renal): 85.3 µM
- GI50 (CAKI-1 renal): 13.3 µM
- TGI (CAKI-1 renal): 38.4 µM
- GI50 (NCI-H522 lung): 11.4 µM
- TGI (NCI-H522 lung): 35.7 µM
- GI50 (LOX IMVI melanoma): 18.6 µM
- TGI (LOX IMVI melanoma): 48.8 µM
- GI50 (UACC-62 melanoma): 12.8 µM
- TGI (UACC-62 melanoma): 42.9 µM
- GI50 (A549 NSCLC): 16.1 µM
- TGI (A549 NSCLC): 40.3 µM
- GI50 (OVCAR-4 ovarian): 42.7 µM
- TGI (OVCAR-4 ovarian): > 100 µM
- GI50 (HL-60(TB) leukemia): 2.87 µM
- TGI (HL-60(TB) leukemia): 13.1 µM
- GI50 (SNB-19 CNS): 14 µM
- TGI (SNB-19 CNS): 29.3 µM
- GI50 (OVCAR-3 ovarian): 27.9 µM
- TGI (OVCAR-3 ovarian): > 100 µM
- GI50 (SF-295 CNS): 18.4 µM
- TGI (SF-295 CNS): 57.3 µM
- GI50 (NCI-H23 lung): 14.2 µM
- TGI (NCI-H23 lung): 35.2 µM
- GI50 (SK-MEL-2 melanoma): 13.9 µM
- TGI (SK-MEL-2 melanoma): 33.2 µM
- GI50 (M19-MEL melanoma): 26.5 µM
- TGI (M19-MEL melanoma): > 100 µM
- GI50 (SK-OV-3 ovarian): 23.4 µM
- TGI (SK-OV-3 ovarian): 53.1 µM
- GI50 (NCI-H460 lung): 16.4 µM
- TGI (NCI-H460 lung): 49.9 µM
- GI50 (DLD-1 colon): 12.2 µM
- TGI (DLD-1 colon): 40.9 µM
- GI50 (COLO 205 colon): 37.6 µM
- TGI (COLO 205 colon): > 100 µM
- GI50 (TK-10 renal): 34.2 µM
- TGI (TK-10 renal): > 100 µM
- GI50 (NCI-H226 lung): 14.4 µM
- TGI (NCI-H226 lung): 56.1 µM
- GI50 (HCT-15 colon): 6.49 µM
- TGI (HCT-15 colon): 52.4 µM
- GI50 (EKVX NSCLC): 17.3 µM
- TGI (EKVX NSCLC): 44.7 µM
- GI50 (CCRF-CEM leukemia): 9.78 µM
- TGI (CCRF-CEM leukemia): > 100 µM
- GI50 (HOP-18 NSCLC): 40 µM
- TGI (HOP-18 NSCLC): > 100 µM
- GI50 (MALME-3M melanoma): 13.2 µM
- TGI (MALME-3M melanoma): 37.1 µM
- GI50 (UACC-257 melanoma): 18 µM
- TGI (UACC-257 melanoma): 51.7 µM
- GI50 (M14 melanoma): 24.2 µM
- TGI (M14 melanoma): 83.6 µM
- GI50 (SF-539 CNS): 13.9 µM
- TGI (SF-539 CNS): 29.3 µM
- GI50 (HOP-62 NSCLC): 24.1 µM
- TGI (HOP-62 NSCLC): 62.7 µM
- GI50 (U251 CNS): 15.2 µM
- TGI (U251 CNS): 54.2 µM
- GI50 (LXFL 529 NSCLC): 20.7 µM
- TGI (LXFL 529 NSCLC): 76.4 µM
- GI50 (HCC-2998 colon): 17.3 µM
- TGI (HCC-2998 colon): 41.7 µM
- GI50 (SW-620 colon): 3.91 µM
- TGI (SW-620 colon): 30 µM
- GI50 (A498 renal): 15.3 µM
- TGI (A498 renal): 31.1 µM
- GI50 (MOLT-4 leukemia): 12.5 µM
- TGI (MOLT-4 leukemia): > 100 µM
- GI50 (KM12 colon): 13.5 µM
- TGI (KM12 colon): 71.3 µM
- GI50 (SN12C renal): 18.7 µM
- TGI (SN12C renal): 49.5 µM
- GI50 (HT29 colon): 16.3 µM
- TGI (HT29 colon): 76 µM
- GI50 (IGROV1 ovarian): 19.3 µM
- TGI (IGROV1 ovarian): 46.1 µM
- GI50 (RPMI-8226 leukemia): 15.4 µM
- TGI (RPMI-8226 leukemia): > 100 µM
- GI50 (SK-MEL-28 melanoma): 11.5 µM
- TGI (SK-MEL-28 melanoma): 43 µM
- GI50 (ACHN renal): 21.6 µM
- TGI (ACHN renal): 87.8 µM
